Data set [1] deals with human glioblastoma cell line SF-268. Description: XTT proliferation assay, SF-268. The following applies: Homo sapiens, read-out: XTT proliferation assay, EC50, SF-268. Format: cell-based. The source says: (§1) The substances according to the invention were investigated for their antiproliferative activity in a proliferation test on established tumor cell lines. The test used determines the cellular dehydrogenase activity and makes possible a determination of the cell vitality and indirectly the cell count. The cell lines used are the human cervical carcinoma cell line KB/HeLa (ATCC CCL17), the ovarian adenocarcinoma cell line SKOV-3 (ATCC HTB77), the human glioblastoma cell line […] (NCI 503138) and the lung carcinoma cell line NCI-H460 (NCI 503473).
(§2) The adherently growing tumor cell lines KB/HeLa, SKOV-3, SF-268 and NCI-H460 were cultured under standard conditions in a fumigation incubator at 37° C., 5% CO2 and 95% atmospheric humidity. On experimental day 1, the cells are detached using trypsin/EDTA and pelleted by centrifugation. Subsequently, the cell pellet is resuspended in the respective culture medium at the corresponding cell count and reacted in a 96-well microtiter plate. The plates are then cultured overnight in the fumigation incubator. The test substances are prepared as 1 mg/ml stock solutions in DMSO and diluted to the appropriate concentrations on experimental day 2 using culture medium. The substances in culture medium are then added to the cells and incubated in the fumigation incubator for 45 h. As a control, cells which are not treated with test substance are used. For the XTT assay, 1 mg/ml of XTT (sodium 3′-[1-(phenylaminocarbonyl)-3,4-tetrazolium]-bis(4-methoxy-6-nitro)benzenesulfonic acid) is dissolved in RPMI-1640 medium without Phenol Red. Additionally, a 0.383 mg/ml PMS (N-methyldibenzopyrazine methylsulfate) solution in phosphate-buffered saline solution (PBS) is prepared. On experimental day 4, 75 μl/well of XTT-PMS mixture is pipetted onto the cell plates which in the meantime have been incubated with the test substances for 45 h. For this, shortly before use, the XTT solution is mixed with the PMS solution in the ratio 50:1 (vol:vol). The cell plates are then incubated in the fumigation incubator for a further 3 h and the optical density (OD490 nm) is determined in a photometer. By means of the OD490 nm determined, the percentage inhibition is calculated relative to the control and plotted semilogarithmically in the form of a concentration-action curve. The EC50 is calculated by means of a regression analysis from the concentration-action curve using the program Graphpad Prism.
Background: Formazan colour is commonly taken as a measure of viable cells.

Data set [2] has as its system lung carcinoma cell line NCI-H460. Nature of the data set: XTT proliferation assay, NCI-H460. Format: cell-based, human. Conditions: Homo sapiens, read-out: XTT proliferation assay, EC50, NCI-H460.
Description: as §1, §2

In data set [3] the test system is human cervical carcinoma cell line KB/HeLa. Nature of the data set: XTT proliferation assay, KB/HeLa. Conditions: Homo sapiens, read-out: XTT proliferation assay, EC50, KB/Hela. Format: cell-based.
Description: as §1, §2

Data set [4] relates to ovarian adenocarcinoma cell line SKOV-3. Description: XTT proliferation assay, SKOV-3. Format: cell-based, human. Conditions: Homo sapiens, read-out: XTT proliferation assay, EC50, SKOV3.
Description: as §1, §2

Data set [5] concerns bovine tubulin with 30% associated proteins (MAPs). Nature of the data set: Tubulin polymerization assay. Format: biochemical. The following applies: tubulin with 30% MAPs, average of two independent experiments. As for the experimental part:
The compounds according to the invention were tested for inhibition of the polymerization of bovine tubulin in an in-vitro test. In this test, tubulin purified by cycles of polymerization and depolymerization is employed, which is polymerized by addition of GTP and warming. In Table 2, the inhibition or EC50 values of the inhibition of polymerization of tubulin with 30% associated proteins (MAPs) are indicated.
The assay is carried out based on the method of Bollag et al. Lyophilized bovine tubulin (cytoskeleton, ML113 tubulin 30% MAPs) is dissolved in a concentration of 2 mg/ml (ML113 in 80 mM PIPES, 0.5 mM EGTA, 2 mM MgCl2, pH 6.9, 1 mM GTP) or 5 mg/ml (TL238 in 80 mM PIPES, 1 mM EGTA, 0.5 mM MgCl2, 20% (v:v) glycerol pH 6.9, 1 mM GTP). The test substances are diluted in 10% DMSO (v:v) and 5 μl of the dilutions are transferred to a 96-well microtiter plate (Nunc, half area plate). After addition of 45 μl of the tubulin solution, the polymerization is determined at 340 nm in a Spectramax 190 microtiter plate reader (Molecular Devices) by means of a kinetics program at 30 sec intervals over a period of 20 min. The resulting area under curve values are used for the calculation of the inhibition with respect to the untreated control. The controls are untreated cells (±induction). Induction was carried out using 3 μM of muristerone A. On day 1, the cells are sown (±muristerone A) and incubated at 37° C. for 24 h. On day 2, the test substance is added (control DMSO) and incubation at 37° C. is continued further 45 h, after which a standard XTT assay is carried out.

Data set [6] is described as follows: Saturation solubility in water. The following applies: versus comparison substances of WO0208194.
Description: (§3) The saturation solubility in water is determined as described below. For incipient dissolution of the substances and to improve wetting of the samples, at most 1% of DMSO is added. To check the content, an HPLC-UV method was used.
The nature of another data set: physchem. Conditions: water, thermodynamic from solid.
Where [7] appears, read: NCI-H460 cells, 45 h incubation.
Setting [8] is: SK-OV-3, SKOV-3 cells, 45 h incubation.

Values after ≈ are worked out from the molar mass of the structure shown. Read-outs that look alike come from different tables or passages of the source.

Description for physchem: as §3

Regarding `CC(=O)Oc1cccc(N2CCN(C(=O)c3c4ccccc4nc4ccccc34)CC2)c1` [Compound 3, 3-[4-(Acridin-9-ylcarbonyl)piperazin-1-yl]phenyl acetate], the EC50 in data set [1] (SF-268 cells, 45 h incubation) is 0.018 µg/mL; in data set [2] (setting [7]), 0.019 µg/mL; in data set [3] (KB/HeLa cells, 45 h incubation), 0.013 µg/mL; in data set [4] (setting [8]), 0.011 µg/mL. The “Inhibition of tubulin polymerization in [% INH at 10 μg/ml] using 30% MAPs” value (from here on “Inhibition … [% INH at 10 μg/ml] using 30% MAPs”) in data set [5] amounted to 87 % INH. For the same molecule, in data set [5], the “Inhibition of tubulin polymerization using 30% MAPs, EC50” value (from here on “Inhibition … using 30% MAPs, EC50”) worked out at 1.35 µg/mL.
Turning to `COC(=O)Oc1cccc(N2CCN(C(=O)c3c4ccccc4nc4ccccc34)CC2)c1` [Compound 5, 3-[4-(Acridin-9-ylcarbonyl)piperazin-1-yl]phenyl methyl carbonate], the EC50 in data set [1] (SF-268 cells, 45 h incubation) worked out at 0.024 µg/mL (≈ 0.0544 µM); in data set [2] (setting [7]), 0.021 µg/mL (≈ 0.0476 µM); in data set [3] (KB/HeLa cells, 45 h incubation) it was 0.017 µg/mL (≈ 0.0385 µM); in data set [4] (setting [8]), 0.015 µg/mL (≈ 0.034 µM). Moreover, the “Inhibition … [% INH at 10 μg/ml] using 30% MAPs” value in data set [5] is recorded as 94.3 % INH. The “Inhibition … using 30% MAPs, EC50” value in data set [5] was determined as 1.08 µg/mL.
Turning to `O=C(OCCCl)Oc1cccc(N2CCN(C(=O)c3c4ccccc4nc4ccccc34)CC2)c1` [Compound 6, 3-[4-(Acridin-9-ylcarbonyl)piperazin-1-yl]phenyl 2-chloroethyl carbonate], the melting point (usually the temperature, or range, at which the solid turns liquid) is 162 to 163 °C. In addition, the EC50 in data set [1] (SF-268 cells, 45 h incubation) was found to be 0.032 µg/mL (≈ 0.0653 µM). The EC50 in data set [2] (setting [7]) amounted to 0.029 µg/mL (≈ 0.0592 µM). In addition, the EC50 in data set [3] (KB/HeLa cells, 45 h incubation) is 0.021 µg/mL (≈ 0.0429 µM). The EC50 in data set [4] (setting [8]) worked out at 0.019 µg/mL (≈ 0.0388 µM). The “Inhibition … [% INH at 10 μg/ml] using 30% MAPs” value in data set [5] is 70 % INH.
Take `O=C(NCCO)Oc1cccc(N2CCN(C(=O)c3c4ccccc4nc4ccccc34)CC2)c1` [Compound 7, 3-[4-(Acridin-9-ylcarbonyl)piperazin-1-yl]phenyl (2-hydroxyethyl)carbamate]: the EC50 in data set [1] (SF-268 cells, 45 h incubation) is 0.031 µg/mL (≈ 0.0659 µM); in data set [2] (setting [7]), 0.036 µg/mL (≈ 0.0765 µM); in data set [3] (KB/HeLa cells, 45 h incubation), 0.029 µg/mL (≈ 0.0616 µM); in data set [4] (setting [8]) it was 0.019 µg/mL (≈ 0.0404 µM). The “Water solubility compared to the comparison substances” value in data set [6] was “greatly improved water solubilities”. In “physchem”, the solubility – broadly, the concentration that dissolves in the medium under given conditions – was found to be 108 µg/mL (≈ 230 µM).
On to `CS(=O)(=O)Oc1cccc(N2CCN(C(=O)c3c4ccccc4nc4ccccc34)CC2)c1` [Compound 15, 3-[4-(Acridin-9-ylcarbonyl)piperazin-1-yl]phenyl methanesulfonate], for which the EC50 stood at 0.069 µg/mL in data set [1] (SF-268 cells, 45 h incubation); 0.079 µg/mL in data set [2] (setting [7]); 0.078 µg/mL in data set [3] (KB/HeLa cells, 45 h incubation); 0.048 µg/mL in data set [4] (setting [8]). In data set [5], the “Inhibition … [% INH at 10 μg/ml] using 30% MAPs” value is listed as 94.8 % INH. The “Inhibition … using 30% MAPs, EC50” value in data set [5] was 4.82 µg/mL.
In turn, `CC1(C)OCC(COC(=O)Oc2cccc(N3CCN(C(=O)c4c5ccccc5nc5ccccc45)CC3)c2)O1` (centres unmarked) [Compound 16, 3-[4-(Acridin-9-ylcarbonyl)piperazin-1-yl]phenyl 2,2-dimethyl-[1,3]-dioxolan-4-ylmethyl carbonate] displayed a melting point of 107 to 108 °C. For the same molecule, in data set [1] (SF-268 cells, 45 h incubation), the EC50 was determined as 0.043 µg/mL (≈ 0.0794 µM). In data set [2] (setting [7]), the EC50 is 0.042 µg/mL (≈ 0.0775 µM). The EC50 in data set [3] (KB/HeLa cells, 45 h incubation) worked out at 0.033 µg/mL (≈ 0.0609 µM). In addition, in data set [4] (setting [8]), the EC50 was found to be 0.026 µg/mL (≈ 0.048 µM).
Regarding `O=C(c1c2ccccc2nc2ccccc12)N1CCN(c2cccc(OP(=O)([O-])[O-])c2)CC1.[Na+].[Na+]` [Compound 33, Mono-{3-[4-(acridin-9-ylcarbonyl)piperazin-1-yl]phenyl}phosphate disodium salt], the EC50 in data set [1] (SF-268, 45 h) turned out to be 0.057 µg/mL; in data set [2] (NCI-H460, 45 h) it was 0.067 µg/mL; in data set [3] (HeLa, 45 h) it was 0.013 µg/mL; in data set [4] (SK-OV-3, 45 h), 0.038 µg/mL. This molecule came in with a solubility in “physchem” of 9090 µg/mL.
Regarding `COc1cccc(N2CCN(C(=O)c3c4ccccc4nc4ccc(O)cc34)CC2)c1` [Compound 37, (2-Hydroxyacridin-9-yl)-[4-(3-methoxyphenyl)piperazin-1-yl]methanone], the EC50 in data set [1] (SF-268 cells, 45 h incubation) was 0.076 µg/mL (≈ 0.184 µM); in data set [2] (setting [7]) it was 0.067 µg/mL (≈ 0.162 µM); in data set [3] (KB/HeLa cells, 45 h incubation), 0.064 µg/mL (≈ 0.155 µM); in data set [4] (setting [8]), 0.042 µg/mL (≈ 0.102 µM). Besides, the “Inhibition … using 30% MAPs, EC50” value in data set [5] is 2.06 µg/mL.
On to `O=C(c1c2ccccc2nc2ccc(O)cc12)N1CCN(c2cccc(O)c2)CC1` [Compound 38, (2-Hydroxyacridin-9-yl)-[4-(3-hydroxyphenyl)piperazin-1-yl]methanone], for which the EC50 in data set [1] (SF-268 cells, 45 h incubation) came to 0.137 µg/mL (≈ 0.343 µM); in data set [2] (setting [7]) it was 0.214 µg/mL (≈ 0.536 µM); in data set [3] (KB/HeLa cells, 45 h incubation), 0.125 µg/mL (≈ 0.313 µM); in data set [4] (setting [8]) it was 0.095 µg/mL (≈ 0.238 µM). In addition, the “Inhibition … using 30% MAPs, EC50” value in data set [5] was determined as 4.57 µg/mL.

The record behind these values is US20050009809A1, “Acridine derivatives and their use as medicaments” (priority 2003, published 2005).
